Test results from patent US20260021120A1, “METHOD FOR TREATING INFLAMMATORY SKIN DISEASE USING 6-DIAZO-5-OXO-L-NORLEUCINE” (Dermato Bio Inc., priority 2019, published 2026).
“Also recorded” adds a separate entry of the source.

Tests used:
TPA-induced inflammation = TPA-induced inflammation inhibiting experiment (mouse ear); assay type: in vivo, C57BL/6 female mice; details: for visual skin condition of the ear area: after 5 days of application, compared to a negative control (FIG. 6); for number of mast cells / penetration of mast cells into lesion: toluidine blue staining, 200× image, DEX 3 mg, CRI 0.6 mg, DON 0.1 mg on ears, vs TPA positive control
Procedure: For an experiment of inducing and inhibiting inflammation using 12-O-tetradecanoylphorbol-13-acetate (TPA, Sigma), 14 week-old C57BL/6 female mice were purchased from NARA Biotech (Korea) and used. The purchased mice were acclimated for 7 days, and healthy animals were selected and tested. During the experimental period, the mice were raised while maintaining the environment at a temperature of 21 to 25° C., a relative humidity of 45 to 65% and a lighting time of 12 hours, and freely fed feed and drinking water.
First, the acclimated mice with similar characteristics such as a body weight and size were divided into five experimental groups of 3, and separately raised to confirm an anti-inflammation level. Inflammation was induced by first applying 1.0 ug of TPA to each of both ears of a mouse, and after 1 hour, a therapeutic material was applied, which was continued for 5 days. A mouse to which only acetone (Merck), which is a TPA solvent, was applied was set as a negative control (Vehicle), a mouse to which 1.0 ug of TPA dissolved in acetone was applied was set as a positive control and evaluated, and after TPA was applied, mice to which each of 3 mg of dexamethasone (DEX, Sigma), 0.6 mg of crisaborole (CRI, ChemScene) and 0.1 mg of 6-diazo-5-oxo-L-norleucine (DON, Sigma) was applied were set as experimental groups. After applying each material for 5 days by the above-described method, the weight, ear thickness and ear weight of each mouse were measured, and ear tissue was collected and histologically analyzed by hematoxylin & eosin (H&E) staining and toluidine blue staining.
FIG. 8 is a graph obtained by scoring visually evaluated ear lesions, divided into erythema, scaling and a thickness, and in the graph, the severity of symptoms was rated on a 5-point scale (0=none; 1=slight; 2=moderate; 3=marked; and 4=very marked).
Afterward, to confirm the anti-inflammatory effect of DON, the mouse's ear thickness and ear weight were measured and quantified (FIGS. 9A and 9B), and, based on the histological analysis result obtained by toluidine blue staining capable of confirming mast cells, the number of mast cells was measured by comparing three tissue samples per group using a 200× image (FIG. 9C). […] Therefore, it was confirmed that DON can alleviate pruritus symptoms by inhibiting the histamine secretion not only from epithelial cells but also from mast cells, and can also prevent severe dermatitis caused by secondary infection.

NFκB [1] = assay: TNF-α-induced NFκB activation (luciferase activity) in fibroblasts (NIH3T3/NFκB-luc cells); assay type: cell-based; details: 25 ng/ml TNF-α co-treated 8 hours, 100 μM DON, 5 μM Bay11-7082, vs TNF-α only-treated group
Procedure: (§1) This example was intended to indirectly confirm the inhibition of chemokine secretion and histone acetylation by confirming the activity of NFκB in skin cells with a dermatitis lesion, and confirming whether the accelerated NFκB activity was inhibited.
(§2) NIH3T3/NFκB-luc cells, which is a cell line capable of confirming the activity of an NFκB transcription factor through luciferase activity were treated with 25 ng/ml of TNF-α to activate an NFκB signal, and as a positive control, 5 μM of a TNF-α inhibitor, Bay11-7082 (Bay), causing an NF-κB signaling inhibitory action was used. NIH3T3/NFκB-luc cells were dispensed at […] in a 96-well plate, and stabilized in an incubator for 24 hours. To confirm the DON efficacy on NFκB, TNF-α and 100 μM DON were co-treated for 8 hours and then lysed, thereby obtaining a cell enzyme solution, and then the cell enzyme solution was reacted with luciferin, and luciferase activity was measured using a luminometer (FIGS. 3 and 4). The difference in the number of cells between treatment groups was corrected with the resulting values of luciferase activity using protein quantification.

NFκB [2] = assay: TNF-α-induced NFκB activation (luciferase activity) in keratinocytes; assay type: cell-based; details: 25 ng/ml TNF-α co-treated 8 hours, 100 μM DON, 5 μM Bay11-7082, vs TNF-α only-treated group
Procedure: as §1, §2

[3] = tested on: oxazolone-induced atopic dermatitis; assay: Oxazolone-induced atopic dermatitis inhibiting experiment (mouse ear); assay type: in vivo, female BALB/c mice
Procedure: Using five 8-week-old female BALB/c mice per group, an effect of inhibiting oxazolone-induced atopic dermatitis was tested. In the experiment, dermatitis induced on the car of each mouse was treated with a therapeutic candidate, and it was attempted to confirm an effect depending on an administration route of a therapeutic agent through percutaneous application or subcutaneous injection. First, to induce atopic dermatitis in all groups excluding the negative control, 0.35 mg of 4-ethoxymethylene-2-phenyl-2-oxazolin-5-one (oxazolone, OXA) was mixed with 30 μl of acetone, and sensitization was preceded on each of the both ears with the 1% mixture. The same amount of a solvent without OXA was applied for the negative control (vehicle). From 7 days after the initial application of OXA, OXA (0.5%) was additionally applied every two days to induce dermatitis. For treatment groups, dexamethasone (DEX), tacrolimus (TAC), cyclosporine (CYCL), crisaborole (CRI) and DON were used. For percutaneous application, each time OXA was applied, after 1 hour, each of the therapeutic candidates was treated on both ears, and in the administration test via subcutaneous injection, injection was performed 1 hour after OXA treatment, but intermittently performed every two days. As an excipient used in the subcutaneous injection, filtered distilled water was used, and the control was also administered the same amount of sterile water. Finally, on day 22 after the initial OXA application, the experiment was terminated, and the mice were sacrificed and autopsied, ear tissue was collected, and to confirm the morphological structure of the tissue, H&E staining was performed, and to count the number of the infiltrated mast cells, toluidine blue staining was performed.
FIGS. 14A and 14B were obtained by quantifying the total number of cells and the number of mast cells, which are infiltrated into the dermis, from the staining results. (a) The cell numbers were compared using the total number of infiltrated cells in 200 square micrometers (μm^2), and (b) the mast cells infiltrated into the same area were converted into percentage (%) with respect to the total cell number.

IMQ-induced psoriasis = IMQ-induced psoriasis inhibiting experiment (mouse back); assay type: in vivo, female C57/BL6 mice; details: 0.05% DON, 100 μl on back
Procedure: For a psoriasis inhibition experiment using imiquimod (IMQ, Tokyo Chemical Industry, 10747-100 mg), as an experimental animal, female C57/BL6 mice (n=5) were used. First, to induce psoriasis, sensitization was preceded by evenly applying 4 mg IMQ to the completely shaved back of each of the mice in all groups except a negative control at a volume of 100 μl. For the negative control, the same amount of a solvent without IMQ was applied. Psoriasis was induced by applying IMQ a total of five times at 24-hour intervals for 5 days, and for treatment groups, the same site was treated (applied) with 0.05% dexamethasone (DEX) ([…], 100 μl) or 0.05% DON (0.5 mg/ml, 100 μl) dissolved in ethanol one hour after IMQ treatment.
The severity of scaling (FIG. 20) visually evaluated at a lesion site was classified and evaluated by rating, and the severity of the symptom was rated on a 5-point scale (0=none; 1=slight; 2=moderate; 3=marked; and 4=very marked), and plotted on a graph.

[4] = ear lesion, DON 0.1 mg, 5 days (FIG. 8)

| SMILES | visual skin condition of the ear area (TPA-induced inflammation) | number of mast cells / penetration of mast cells into lesion (TPA-induced inflammation; after 5 days) | NFκB activity by TNF-α (luciferase activity) (NFκB [1]) | NFκB activity by TNF-α (luciferase activity) (NFκB [2]) | weight (g) of ear tissue ([3]; 0.1% (0.0272 mg), ear, percutaneous application (FIG. 12A)) | thickness (mm) of ear tissue ([3]; 0.1% (0.0272 mg), ear, percutaneous application (FIG. 12B)) | visual symptoms of atopic dermatitis (tissue swelling, eczema, deformation of the ear tissue) ([3]; 0.1% (0.0272 mg), ear, percutaneous application, vs OXA group (FIG. 11)) | number of immune cells introduced into the dermis ([3]; histological analysis, total infiltrated cells in 200 μm^2) | thickness of the epithelium ([3]; oxazolone-induced inflammation, inflammatory lesion treated with DON (FIG. 2)) | number of mast cells / penetration of mast cells into lesion ([3]; toluidine blue staining, dermis of ear, day 22) | changes in the epithelium of skin ([3]; visual and histological analysis) | thickened skin tissue of the epidermis and dermis (histological analysis) (TPA-induced inflammation; H&E, after 5 days, DON 0.1 mg on ears (FIG. 7)) | thickness of the epithelium (TPA-induced inflammation; TPA-induced inflammation, inflammatory lesion treated with DON (FIG. 1)) | degree of erythema (visual score, 5-point scale) (TPA-induced inflammation; [4]) | degree of scaling (visual score, 5-point scale) (TPA-induced inflammation; [4]) | degree of thickness (visual score, 5-point scale) (TPA-induced inflammation; [4]) | skin thickness at the lesion (IMQ-induced psoriasis; 5 days (FIG. 21)) | severity of scaling (visual score, 5-point scale) (IMQ-induced psoriasis; 5 days, vs IMQ positive control (FIG. 20)) |
| --- | --- | --- | --- | --- | --- | --- | --- | --- | --- | --- | --- | --- | --- | --- | --- | --- | --- | --- |
| N#Cc1ccc(Oc2ccc3c(c2)COB3O)cc1 [CRI, crisaborole, reference compound] | showed erythema and scaling | significantly decreased | – | – | – | – | – | – | – | – | – | – | – | – | – | – | – | – |
| Cc1ccc(S(=O)(=O)/C=C/C#N)cc1 [Bay11-7082, reference compound] | – | – | decreased | decreased | – | – | – | – | – | – | – | – | – | – | – | – | – | – |
| [N-]=[N+]=CC(=O)CC[C@H](N)C(=O)O [DON, 6-diazo-5-oxo-L-norleucine] | showed erythema and scaling | significantly decreased; also recorded: weakened | reduced; also recorded: inhibited | reduced; also recorded: inhibited | significantly decreased | significantly decreased | significant skin improvement | significantly reduces; also recorded: small | significantly reduced | significantly reduces; also recorded: weakened | significantly reduces | becomes thinner | significantly reduced | significantly reduced | significantly reduced | significantly reduced | significantly reduced | significantly decreased |
